{"source": "patent US12661355B2", "about": "“Compounds and methods for inducing UCP1 expression” (The Regents of the University of California, priority 2020, dated 2026)", "key": {"[1]": {"tested_on": "immortalized brown adipocytes", "test": "Global gene expression analysis (microarray, DAVID functional annotation) in immortalized brown adipocytes", "type": "cell-based, mouse", "procedure": "Mouse RNA levels were measured by qPCR according to known methods. Data were normalized to B2m and Tbp reference genes. Human RNA was extracted using an RNA Mini Plus kit (Zymo) and gene expression determined by Taqman assay. The 1-step qPCR was run on a QuantStudio 12K Flex Real Time PCR System (ThermoFisher) using the following protocol: 50° C. for 5 minutes, 95° C. for 20 seconds, 40 cycles of 95° C. for 15 seconds and 60° C. for 60 seconds. Data were normalized to PPIA and PSMB2 reference genes. For global gene expression analysis, RNA isolated from brown adipocytes treated with compounds as indicated (four biological replicates) was hybridized to Illumina mouse Ref 8 V2.0 bead chips at the University of California, Los Angeles Neuroscience Genomics Core as previously described. Data were processed with GenomeStudio V2011.1 using the quantile normalization, background subtraction, and a present call of P<0.05.\nTo assess the effects of Z160 on global transcription in mouse brown adipocytes, microarray analysis of RNA isolated from immortalized brown adipocytes treated with either vehicle or Z160 was performed. […] The results of the microarray were corroborated using qPCR for representative genes from each electron transport chain complex (FIG. 5B)."}, "[2]": {"tested_on": "human brown adipocyte cell line", "test": "Cellular respiration in human brown adipocytes", "type": "cell-based", "details": "10 μM for 4 days", "procedure": "Human immortalized brown and white preadipocytes were obtained from Dr. Yu-Hua Tseng (Joslin Diabetes Center, Harvard Medical School, USA). The generation of the two cell lines from human neck adipose tissue biopsies and immortalization was performed as previously described but from a different donor. Cells were cultured in high glucose DMEM supplemented with 10% FBS and antibiotics. Two days after reaching confluence, cells were treated with 30 μM biotin, 500 nM insulin, 17 μM pantothenate, 100 nM dexamethasone, 2 nM 3,3′,5-Triiodo-L-thyronine, 500 μM IBMX, 30 μM indomethacin and 1 μM rosiglitazone, for 12 days. […]\nCellular respiration was measured using a Seahorse XF24 or XF96 analyzer (Agilent) following known protocols Immortalized brown adipocytes were differentiated in 6-well plates and replated in the Seahorse XF24 plates at a density of 50,000 cells per well using trypsin and collagenase type II. […] Oxygen consumption rates were measured before and after the sequential injection of 1 μM oligomycin, 1 μM FCCP, and 0.5 μM rotenone/antimycin A. For these cells, results were normalized to cell count determined by nuclei fluorescent staining with Hoescht staining imaged on Cytation 5 Imaging Reader and analysis with Gen5 software (BioTek). […] Maximal respiration was determined after FCCP injection."}, "PKA subunits": {"tested_on": "PKA subunits", "test": "Western blot of mitochondria-associated proteins, PKA subunits", "type": "cell-based, mouse", "details": "brown adipocytes, 10 μM, after 6-8 h", "procedure": "Cells and tissues were lysed in 10 mM Tris pH 7.5, 10 mM NaCl, 1 mM EDTA and 0.5% Triton X-100, supplemented with complete mini EDTA-free protease (Roche Diagnostics) and phosphatase (Cocktail 2 and 3, Sigma) inhibitors, followed by 10 second sonication. For analysis of mitochondrial proteins, mitochondria were isolated from cells by dual centrifugation, as described. Protein lysates were separated by SDS-PAGE and transferred to a nitrocellulose membrane. Transfer was confirmed by Ponceau staining (P7170, Sigma). After blocking in 5% milk, 0.1% Tween-20 in Tris-buffered saline (TBS), primary antibody was incubated overnight at 4° C. in 5% bovine serum albumin and 0.1% Tween-20 in TBS. Primary antibodies against ACTB (GTX109639, GeneTex), AKAP1 (5203, Cell Signaling), AKAP6 (07-087, Millipore), Cytochrome c (136F3, Cell Signaling), electron transport chain protein complexes (Total OXPHOS rodent WB antibody cocktail ab110413, Abcam), GAPDH (GTX100118, Genetex), active p38 MAPK (V1211, Promega), total p38 MAPK (8690, Cell Signaling), PGC1α (AB3242, Millipore), phospho-(Ser/Thr) PKA substrate (9621, Cell Signaling), PKA C-α (4782, Cell Signaling), PKA RII-β (ab75993, Abcam), and UCP1 (662045, Calbiochem) were used at 1:2000. […] Quantification using representative bands from the Ponceau staining was performed with ImageJ. […]"}, "[3]": {"details": "genes >1.5-fold down-regulated, DAVID"}, "[4]": {"details": "genes >1.5-fold up-regulated, DAVID"}}}
{"smiles": "COc1ccc(NC(=O)CSc2nc3ccccc3c(=O)[nH]2)c(OC)c1", "note": "[Z160]", "values": [{"measurement": "Genes, GO cellular component Down: Basement membrane", "setting": "[1]; [3]", "value": 17}, {"measurement": "Genes, GO cellular component Down: Cell surface", "setting": "[1]; [3]", "value": 45}, {"measurement": "Genes, GO cellular component Down: Cytoplasm", "setting": "[1]; [3]", "value": 178}, {"measurement": "Genes, GO cellular component Down: Extracellular exosome", "setting": "[1]; [3]", "value": 119}, {"measurement": "Genes, GO cellular component Down: Extracellular region", "setting": "[1]; [3]", "value": 86}, {"measurement": "Genes, GO cellular component Down: Extracellular space", "setting": "[1]; [3]", "value": 72}, {"measurement": "Genes, GO cellular component Down: Focal adhesion", "setting": "[1]; [3]", "value": 25}, {"measurement": "Genes, GO cellular component Down: Proteinaceous extracellular matrix", "setting": "[1]; [3]", "value": 35}, {"measurement": "Genes, GO cellular component Up: Mitochondrial inner membrane", "setting": "[1]; [4]", "value": 27}, {"measurement": "Genes, GO cellular component Up: Mitochondrion", "setting": "[1]; [4]", "value": 88}, {"measurement": "Ucp1 increase (microarray)", "setting": "[1]; microarray, vs vehicle", "value": 2.5, "unit": "fold"}, {"measurement": "probes down-regulated by at least 1.5-fold", "setting": "[1]; microarray, vs vehicle", "value": 504, "unit": "probes"}, {"measurement": "probes up-regulated by at least 1.5-fold", "setting": "[1]; microarray, vs vehicle", "value": 581, "unit": "probes"}, {"measurement": "maximal respiration", "setting": "[2]", "value": "increased"}, {"measurement": "mitochondrial respiration (primarily uncoupled respiration)", "setting": "[2]", "value": "increased"}, {"measurement": "mitochondrial association of PKA subunits", "setting": "PKA subunits", "value": "increased mitochondrial association"}]}
